Structures can show the parent of a compound that is named as a salt.
How the values were obtained:
oral cavity and tongue = assay: Taste and irritation test by subjects (self-made sample vs reference sample); format: in vivo, human
Experimental: In the examples, the taste masking effects of test samples were evaluated by the subject's perception of the bitterness and irritation of the oral cavity and tongue. The Taste and Irritation Classification Tested by the Subjects: [table]

tongue = assay: Comparative Example 2: comparison of taste of solid dispersion, hemihydrobromide powder and marketed drug product (20 subjects); format: in vivo, human; details: equivalent to 10 mg vortioxetine
Experimental: The solid dispersion equivalent to 10 mg vortioxetine prepared in Example 9b, vortioxetine hemihydrobromide powder equivalent to 10 mg vortioxetine, and the powder compressed by vortioxetine hydrobromide marketed drug product equivalent to 10 mg of vortioxetine hydrobromide passed through 100 mesh sieve, then they were put directly in front of the upper part of the tongue for one minute. There were 20 subjects in each powder group. After trying one powder taste, rinsed your mouth, and try another powder after there was no irritation. After trying the taste, record the bitterness level and tongue irritation, spit it out a few seconds later, rinse your mouth, record the time for the irritation to subside, eat 1-1.5 hours later, and record the irritation again.

[1] = Solubility in sodium acetate medium pH 6.8 simulating the oral environment (USP method); format: physicochemical; details: sodium acetate medium, pH 6.8, aqueous buffer, sodium acetate medium pH 6.8, USP method; read-out: Solubility
[2] = average of 5 subjects, powder equivalent to 20 mg of vortioxetine

Br.Cc1ccc(Sc2ccccc2N2CCNCC2)c(C)c1 [Reference sample (1b), vortioxetine hydrobromide form α]
Instantaneous irritation (oral cavity and tongue; Subject 1, 0-1 minute, powder equivalent to 20 mg of vortioxetine tasted): +++ (+ + + Strong irritation, intolerable)
Delayed irritation (oral cavity and tongue; Subject 1, powder equivalent to 20 mg of vortioxetine tasted): >30 min
Instantaneous irritation (oral cavity and tongue; Subject 2, 0-1 minute, powder equivalent to 20 mg of vortioxetine tasted): +++ (+ + + Strong irritation, intolerable)
Delayed irritation (oral cavity and tongue; Subject 2, powder equivalent to 20 mg of vortioxetine tasted): >30 min
Instantaneous irritation (oral cavity and tongue; Subject 3, 0-1 minute, powder equivalent to 20 mg of vortioxetine tasted): +++ (+ + + Strong irritation, intolerable)
Delayed irritation (oral cavity and tongue; Subject 3, powder equivalent to 20 mg of vortioxetine tasted): >30 min
Instantaneous irritation (oral cavity and tongue; Subject 4, 0-1 minute, powder equivalent to 20 mg of vortioxetine tasted): +++ (+ + + Strong irritation, intolerable)
Delayed irritation (oral cavity and tongue; Subject 4, powder equivalent to 20 mg of vortioxetine tasted): >30 min
Instantaneous irritation (oral cavity and tongue; Subject 5, 0-1 minute, powder equivalent to 20 mg of vortioxetine tasted): +++ (+ + + Strong irritation, intolerable)
Delayed irritation (oral cavity and tongue; Subject 5, powder equivalent to 20 mg of vortioxetine tasted): >30 min
Delayed irritation, time to disappear (oral cavity and tongue; [2]): more than 30 minutes
Instantaneous irritation (oral cavity and tongue; [2]): +++ (+ + + Strong irritation, intolerable)

Br.Cc1ccc(Sc2ccccc2N2CCNCC2)c(C)c1.Cc1ccc(Sc2ccccc2N2CCNCC2)c(C)c1 [Vortioxetine hemihydrobromide powder]
Number of subjects experiencing different irritation: Basically no irritation (tongue): 6
Number of subjects experiencing different irritation: Slightly irritating, tolerable (tongue; no irritation after gargling): 12^(2)
Number of subjects experiencing different irritation: unbearable (tongue; subside time more than 2 hours, not subsided after eating): 2^(1)

Br.Cc1ccc(Sc2ccccc2N2CCNCC2)c(C)c1.Cc1ccc(Sc2ccccc2N2CCNCC2)c(C)c1 [vortioxetine hemihydrobromide]
Delayed irritation, time to disappear (oral cavity and tongue; [2]): more than 30 minutes
Instantaneous irritation (oral cavity and tongue; [2]): ++ (+ + Irritating, tolerable)

Cc1ccc(Sc2ccccc2N2CCNCC2)c(C)c1 [vortioxetine hydrobromide, 1-[2-(2,4-dimethyl-phenylsulfanyl)-phenyl]piperazine hydrobromide]
Instantaneous irritation (oral cavity and tongue; Subject 1, 0-1 minute, powder equivalent to 20 mg of vortioxetine tasted, listed as Reference sample (2b), hydrobromide): +++ (+ + + Strong irritation, intolerable)
Delayed irritation (oral cavity and tongue; Subject 1, powder equivalent to 20 mg of vortioxetine tasted, listed as Reference sample (2b), hydrobromide): >30 min
Delayed irritation (oral cavity and tongue; Subject 1, powder equivalent to 20 mg of vortioxetine tasted, listed as Reference sample (4b), hydrobromide): >30 min
Delayed irritation (oral cavity and tongue; Subject 1, powder equivalent to 20 mg of vortioxetine tasted, listed as Reference sample (4c), hydrobromide): >30 min
Delayed irritation (oral cavity and tongue; Subject 1, powder equivalent to 20 mg of vortioxetine tasted, listed as Reference sample (7b), hydrobromide): >30 min
Instantaneous irritation (oral cavity and tongue; Subject 2, 0-1 minute, powder equivalent to 20 mg of vortioxetine tasted, listed as Reference sample (2b), hydrobromide): ++ (+ + Irritating, tolerable)
Delayed irritation (oral cavity and tongue; Subject 2, powder equivalent to 20 mg of vortioxetine tasted, listed as Reference sample (2b), hydrobromide): >30 min
Delayed irritation (oral cavity and tongue; Subject 2, powder equivalent to 20 mg of vortioxetine tasted, listed as Reference sample (4b), hydrobromide): >30 min
Delayed irritation (oral cavity and tongue; Subject 2, powder equivalent to 20 mg of vortioxetine tasted, listed as Reference sample (4c), hydrobromide): >30 min
Delayed irritation (oral cavity and tongue; Subject 2, powder equivalent to 20 mg of vortioxetine tasted, listed as Reference sample (7b), hydrobromide): >30 min
Instantaneous irritation (oral cavity and tongue; Subject 3, 0-1 minute, powder equivalent to 20 mg of vortioxetine tasted, listed as Reference sample (2b), hydrobromide): +++ (+ + + Strong irritation, intolerable)
Delayed irritation (oral cavity and tongue; Subject 3, powder equivalent to 20 mg of vortioxetine tasted, listed as Reference sample (2b), hydrobromide): >30 min
Delayed irritation (oral cavity and tongue; Subject 3, powder equivalent to 20 mg of vortioxetine tasted, listed as Reference sample (4b), hydrobromide): >30 min
Delayed irritation (oral cavity and tongue; Subject 3, powder equivalent to 20 mg of vortioxetine tasted, listed as Reference sample (4c), hydrobromide): >30 min
Delayed irritation (oral cavity and tongue; Subject 3, powder equivalent to 20 mg of vortioxetine tasted, listed as Reference sample (7b), hydrobromide): >30 min
Instantaneous irritation (oral cavity and tongue; Subject 4, 0-1 minute, powder equivalent to 20 mg of vortioxetine tasted, listed as Reference sample (2b), hydrobromide): ++ (+ + Irritating, tolerable)
Instantaneous irritation (oral cavity and tongue; Subject 4, 0-1 minute, powder equivalent to 20 mg of vortioxetine tasted, listed as Reference sample (4b), hydrobromide): +++ (+ + + Strong irritation, intolerable)
Delayed irritation (oral cavity and tongue; Subject 4, powder equivalent to 20 mg of vortioxetine tasted, listed as Reference sample (2b), hydrobromide): >30 min
Delayed irritation (oral cavity and tongue; Subject 4, powder equivalent to 20 mg of vortioxetine tasted, listed as Reference sample (4b), hydrobromide): >30 min
Delayed irritation (oral cavity and tongue; Subject 4, powder equivalent to 20 mg of vortioxetine tasted, listed as Reference sample (4c), hydrobromide): >30 min
Delayed irritation (oral cavity and tongue; Subject 4, powder equivalent to 20 mg of vortioxetine tasted, listed as Reference sample (7b), hydrobromide): >30 min
Instantaneous irritation (oral cavity and tongue; Subject 5, 0-1 minute, powder equivalent to 20 mg of vortioxetine tasted, listed as Reference sample (2b), hydrobromide): +++ (+ + + Strong irritation, intolerable)
Instantaneous irritation (oral cavity and tongue; Subject 5, 0-1 minute, powder equivalent to 20 mg of vortioxetine tasted, listed as Reference sample (4b), hydrobromide): +++ (+ + + Strong irritation, intolerable)
Delayed irritation (oral cavity and tongue; Subject 5, powder equivalent to 20 mg of vortioxetine tasted, listed as Reference sample (2b), hydrobromide): >30 min
Delayed irritation (oral cavity and tongue; Subject 5, powder equivalent to 20 mg of vortioxetine tasted, listed as Reference sample (4b), hydrobromide): >30 min
Delayed irritation (oral cavity and tongue; Subject 5, powder equivalent to 20 mg of vortioxetine tasted, listed as Reference sample (4c), hydrobromide): >30 min
Delayed irritation (oral cavity and tongue; Subject 5, powder equivalent to 20 mg of vortioxetine tasted, listed as Reference sample (7b), hydrobromide): >30 min
Instantaneous irritation (oral cavity and tongue; average of 5 subjects, powder equivalent to 20 mg of vortioxetine, listed as Reference sample (2b), hydrobromide): +++ (+ + + Strong irritation, intolerable)
Instantaneous irritation (oral cavity and tongue; average of 5 subjects, powder equivalent to 20 mg of vortioxetine, listed as Reference sample (4b), hydrobromide): +++ (+ + + Strong irritation, intolerable)
Instantaneous irritation (oral cavity and tongue; average of 5 subjects, powder equivalent to 20 mg of vortioxetine, listed as Reference sample (4c), hydrobromide): +++ (+ + + Strong irritation, intolerable)
Instantaneous irritation (oral cavity and tongue; average of 5 subjects, powder equivalent to 20 mg of vortioxetine, listed as Reference sample (7b), hydrobromide): +++ (+ + + Strong irritation, intolerable)
Instantaneous irritation (oral cavity and tongue; average of 5 subjects, powder equivalent to 20 mg of vortioxetine, listed as Reference sample (9b), hydrobromide): +++ (+ + + Strong irritation, intolerable)
Instantaneous irritation (oral cavity and tongue; average of 5 subjects, powder equivalent to 20 mg of vortioxetine, listed as Reference sample (10), hydrobromide): ++ (+ + Irritating, tolerable)
Instantaneous irritation (oral cavity and tongue; average of 5 subjects, powder equivalent to 20 mg of vortioxetine, listed as Reference sample (11b), hydrobromide): +++ (+ + + Strong irritation, intolerable)
Instantaneous irritation (oral cavity and tongue; average of 5 subjects, powder equivalent to 20 mg of vortioxetine, listed as Reference sample (11c), hydrobromide): +++ (+ + + Strong irritation, intolerable)
Instantaneous irritation (oral cavity and tongue; average of 5 subjects, powder equivalent to 20 mg of vortioxetine, listed as Reference sample (14b), hydrobromide): +++ (+ + + Strong irritation, intolerable)
solubility [1]: 150 µg/mL

Reference: patent publication US12642797B2, “Coated granule, solid dispersion, and preparation containing vortioxetine hydrobromide for oral taste masking” (Seasons Biotechnology (Taizhou) Co., Ltd., priority 2019, dated 2026)
